In patent publication US20110275647A1, “PYRIMIDIN-4-(3H)-ONE DERIVATIVES” (MSD K.K., priority 2009, published 2011):

Target: T1, human MGAT2 (Homo sapiens, UniProt Q3SYC2)
T1 construct: made in house; host or cells: Pichia pastoris (vector pPICZA), membrane fraction
Assay: MGAT2 inhibitory activity test
Assay type: biochemical
Settings: MGAT2-expressed yeast membrane fraction, [14C]-oleoyl-CoA, 37° C. for 30 minutes
Method: Human MGAT2 genes were amplified by PCR using primers described below from human cDNA library (Clontech).
The amplified human MGAT2 genes were introduced into a yeast expression vector pPICZA (Invitrogen). The resultant expression plasmid was introduced into an yeast (Pichia pastris) by electroporation to produce a recombinant yeast. The recombinant yeast was cultured in the presence of 0.5% methanol for 72 hours, and the cells were crushed using glass beads in 10 mM Tris pH 7.5, 250 mM sucrose and 1 mM EDTA, followed by adjusting the membrane fraction by centrifugation to use the adjusted membrane fraction as an enzyme source.
To the reaction solution, 100 μl of 2-propanol/heptan (80:20) was added, the mixture was stirred well, followed by addition of 200 μl of heptane and further stirring the mixture. After centrifugation, the heptane layer was collected, 80 μl of ethanol/0.1N NaOH/H2O (50:5:45) was added, the mixture was thus stirred, followed by recentrifuging the mixture and collecting the heptane layer. After exsiccation of the resultant heptane layer, 100 μl of Microscint 0 (PerkinElmer) was added, and the radioactivity was measured with a liquid scintillation counter. The inhibitory activity was calculated from the following formula:
Inhibition rate=100−(radioactivity in case of addition of test compound−background)/(radioactivity in case of addition of no test compound−background)×100
wherein the background means the radioactivity in case of addition of no membrane fraction.

T1 sequence (Q3SYC2 whole entry): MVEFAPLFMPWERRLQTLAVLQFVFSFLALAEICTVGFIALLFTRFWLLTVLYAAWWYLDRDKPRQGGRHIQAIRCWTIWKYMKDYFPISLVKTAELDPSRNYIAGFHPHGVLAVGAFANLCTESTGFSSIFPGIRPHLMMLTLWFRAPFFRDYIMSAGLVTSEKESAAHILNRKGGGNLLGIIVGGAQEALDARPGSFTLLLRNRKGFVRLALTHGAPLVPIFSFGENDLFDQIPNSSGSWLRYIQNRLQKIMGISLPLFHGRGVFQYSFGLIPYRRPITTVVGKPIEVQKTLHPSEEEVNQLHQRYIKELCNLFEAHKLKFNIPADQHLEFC

SMILES | IC50
O=c1c2c(nc(SCc3ccccc3)n1-c1ccccc1)CCN(c1nc3cc(C(F)(F)F)ccc3[nH]1)C2 [Example 2, 6-(5-trifluoromethyl-1H-benzimidazol-2-yl)-3-phenyl-2-[(phenylmethyl)thio]-5,6,7,8-tetrahydropyrido[4,3-d]pyrimidin-4(3H)-one] | 0.184 µM
O=c1c2c(nc(SCc3ccnnc3)n1-c1ccccc1)CCN(c1nc3cc(C(F)(F)F)ccc3[nH]1)C2 [Example 4, 3-phenyl-2-[(pyridazin-4-ylmethyl)thio]-6-[5-(trifluoromethyl)-1H-benzimidazol-2-yl]-5,6,7,8-tetrahydropyrido[4,3-d]pyrimidin-4(3H)-one] | 0.114 µM
O=c1c2c(nc(SCc3cccnc3)n1-c1ccccc1)CCN(c1nc3cc(C(F)(F)F)ccc3[nH]1)C2 [Example 3, 3-phenyl-2-[(pyridin-3-ylmethyl)thio]-6-[5-(trifluoromethyl)-1H-benzimidazol-2-yl]-5,6,7,8-tetrahydropyrido[4,3-d]pyrimidin-4(3H)-one] | 0.056 µM
O=c1c2c(nc(SCc3ccccc3)n1-c1ccccc1)CCN(c1nc3cc(F)c(F)cc3[nH]1)C2 [Example 1, 6-(5,6-difluoro-1H-benzimidazol-2-yl)-3-phenyl-2-[(phenylmethyl)thio]-5,6,7,8-tetrahydropyrido[4,3-d]pyrimidin-4(3H)-one] | 0.817 µM
